Tests used:
[1] = system: CD8+ T cells; test: In vitro immunogenicity: T-cell priming with aAPCs loaded with peptide/MHC complexes and anti-CD28 antibody, pMHC multimer readout (Tables 19A, 19B); format: cell-based, human; settings: for Share of positive wells (percent class): in vitro immunogenicity, healthy donors, three stimulation cycles; for Wells positive [%]: in vitro immunogenicity of HLA class I peptides, pMHC multimer readout after priming of CD8+ T cells
Method: In an aspect, the peptides are pre-screened for immunogenicity before being included in the warehouse. By way of example, and not limitation, the immunogenicity of the peptides included in the warehouse is determined by a method comprising in vitro T-cell priming through repeated stimulations of CD8+ T cells from healthy donors with artificial antigen presenting cells loaded with peptide/MHC complexes and anti-CD28 antibody.
In order to obtain information regarding the immunogenicity of the TUMAPs of the present invention, the inventors performed investigations using an in vitro T-cell priming assay based on repeated stimulations of CD8+ T cells with artificial antigen presenting cells (aAPCs) loaded with peptide/MHC complexes and anti-CD28 antibody.
In order to perform in vitro stimulations by artificial antigen presenting cells loaded with peptide-MHC complex (pMHC) and anti-CD28 antibody, the inventors first isolated CD8+ T cells from fresh HLA-A*02 leukapheresis products via positive selection using CD8 microbeads (Miltenyi Biotec, Bergisch-Gladbach, Germany) of healthy donors obtained from the University clinics Mannheim, Germany, after informed consent.
PBMCs and isolated CD8+ lymphocytes were incubated in T-cell medium (TCM) until use consisting of RPMI-Glutamax (Invitrogen, Karlsruhe, Germany) supplemented with 10% heat inactivated human AB serum (PAN-Biotech, Aidenbach, Germany), 100 U/ml Penicillin/100 μg/ml Streptomycin (Cambrex, Cologne, Germany), 1 mM sodium pyruvate (CC Pro, Oberdorla, Germany), 20 μg/ml Gentamycin (Cambrex). 2.5 ng/ml IL7 (PromoCell, Heidelberg, Germany) and 10 U/ml IL-2 (Novartis Pharma, Nurnberg, Germany) were also added to the TCM at this step.
Generation of pMHC/anti-CD28 coated beads, T-cell stimulations and readout was performed in a highly defined in vitro system using four different pMHC molecules per stimulation condition and 8 different pMHC molecules per readout condition.
The purified co-stimulatory mouse IgG2a anti human CD28 Ab 9.3 (Jung et al., 1987) was chemically biotinylated using Sulfo-N-hydroxysuccinimidobiotin as recommended by the manufacturer (Perbio, Bonn, Germany). Beads used were 5.6 μm diameter streptavidin coated polystyrene particles (Bangs Laboratories, Illinois, USA).
pMHC used for positive and negative control stimulations were A*0201/MLA-001 (peptide […] (SEQ ID NO. 303) from modified Melan-A/MART-1) and A*0201/DDX5-001 ([…] from DDX5, SEQ ID NO. 304), respectively.
800.000 beads/200 μl were coated in 96-well plates in the presence of 4×12.5 ng different biotin-pMHC, washed and 600 ng biotin anti-CD28 were added subsequently in a volume of 200 μl. Stimulations were initiated in 96-well plates by co-incubating […] CD8+ T cells with 2×10^5 washed coated beads in 200 μl TCM supplemented with 5 ng/ml IL-12 (PromoCell) for 3 days at 37° C. Half of the medium was then exchanged by fresh TCM supplemented with 80 U/ml IL-2 and incubating was continued for 4 days at 37° C. This stimulation cycle was performed for a total of three times. For the pMHC multimer readout using 8 different pMHC molecules per condition, a two-dimensional combinatorial coding approach was used as previously described (Andersen et al., 2012) with minor modifications encompassing coupling to 5 different fluorochromes. Finally, multimeric analyses were performed by staining the cells with Live/dead near IR dye (Invitrogen, Karlsruhe, Germany), CD8-FITC antibody clone SK1 (BD, Heidelberg, Germany) and fluorescent pMHC multimers. For analysis, a BD LSRII SORP cytometer equipped with appropriate lasers and filters was used. Peptide specific cells were calculated as percentage of total CD8+ cells. Evaluation of multimeric analysis was done using the FlowJo software (Tree Star, Oreg., USA). In vitro priming of specific multimer+ CD8+ lymphocytes was detected by comparing to negative control stimulations.

[2] = system: HLA-A*02; test: MHC binding assay, UV-ligand exchange with β2m ELISA, HLA-A*02 (Table 20); parameters: species or system human; settings: binding to HLA-A*02 ranged by peptide exchange yield (UV-ligand exchange, β2m ELISA)
Method in brief: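 Peptide–MHC complexes made by UV-ligand exchange of a UV-cleavable peptide, diluted 100-fold and captured on streptavidin plates. Stabilized complexes detected by HRP anti-β2m ELISA (1 h, 37° C, A450). Exchange yield derived against refolded HLA-A*02:01/MLA-001 monomer standards (15-500 ng/ml).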

[3] = system: HLA-A*24; test: MHC binding assay, UV-ligand exchange with β2m ELISA, HLA-A*24 (Table 21); parameters: species or system human; settings: binding to HLA-A*24 ranged by peptide exchange yield (UV-ligand exchange, β2m ELISA)
Description: Candidate peptides for T cell based therapies according to the present invention were further tested for their MHC binding capacity (affinity). The individual peptide-MHC complexes were produced by UV-ligand exchange, where a UV-sensitive peptide is cleaved upon UV-irradiation, and exchanged with the peptide of interest as analyzed. Only peptide candidates that can effectively bind and stabilize the peptide-receptive MHC molecules prevent dissociation of the MHC complexes. To determine the yield of the exchange reaction, an ELISA was performed based on the detection of the light chain ((β2m) of stabilized MHC complexes. The assay was performed as generally described in Rodenko et al. (Rodenko et al., 2006).
96 well MAXISorp plates (NUNC) were coated over night with 2 ug/ml streptavidin in PBS at room temperature, washed 4× and blocked for 1 h at 37° C. in 2% BSA containing blocking buffer. Refolded HLA-A*02:01/MLA-001 monomers served as standards, covering the range of 15-500 ng/ml. Peptide-MHC monomers of the UV-exchange reaction were diluted 100 fold in blocking buffer. Samples were incubated for 1 h at 37° C., washed four times, incubated with 2 ug/ml HRP conjugated anti-β2m for 1 h at 37° C., washed again and detected with TMB solution that is stopped with […]. Absorption was measured at 450 nm. Candidate peptides that show a high exchange yield (preferably higher than 50%, most preferred higher than 75%) are generally preferred for a generation and production of antibodies or fragments thereof, and/or T cell receptors or fragments thereof, as they show sufficient avidity to the MHC molecules and prevent dissociation of the MHC complexes.

Substance	Share of positive wells (percent class) [1]	Wells positive [%] [1]	Peptide exchange [2]	Peptide exchange [3]
298 (RYLEGTSCI; listed as Homo sapiens) [compound 298]	+ (<20% = +)			
26 (ALQEELTEL; listed as Homo sapiens) [compound 26]		+ (<20% = +)	+++ (50%-75% = +++)	
5 (GIVAHIQEV; listed as Homo sapiens) [compound 5]		+ (<20% = +)	+++ (50%-75% = +++)	
141 (FLDKVLVAA; listed as Homo sapiens) [compound 141]		+ (<20% = +)	+++ (50%-75% = +++)	
296 (TYVDSSHTI; listed as Homo sapiens) [compound 296]	+ (<20% = +)			
144 (ALLAFFPGL; listed as Homo sapiens) [compound 144]		+++ (50%-69% = +++)	+++ (50%-75% = +++)	
1 (LLYPEPWSV; listed as Homo sapiens) [compound 1]		++ (20%-49% = ++)	++++ (≧75% = ++++)	
12 (GLLPLLHRA; listed as Homo sapiens) [compound 12]		++++ (≧70% = ++++)	++++ (≧75% = ++++)	
295 (YYPGVILGF; listed as Homo sapiens) [compound 295]	++ (20%-49% = ++)			
247 (ALYEGYATV; listed as Homo sapiens) [compound 247]		++ (20%-49% = ++)	+++ (50%-75% = +++)	
151 (SVLDSTAKV; listed as Homo sapiens) [compound 151]		++ (20%-49% = ++)	++ (20%-49% = ++)	
23 (SLFSDEFKV; listed as Homo sapiens) [compound 23]		++++ (≧70% = ++++)	+++ (50%-75% = +++)	
11 (ALSPSYLTV; listed as Homo sapiens) [compound 11]		++ (20%-49% = ++)	+++ (50%-75% = +++)	
229 (AILAHLNTV; listed as Homo sapiens) [compound 229]		++ (20%-49% = ++)	++++ (≧75% = ++++)	
4 (KLMPGTYTL; listed as Homo sapiens) [compound 4]		+ (<20% = +)	++++ (≧75% = ++++)	
6 (ALFDSLRHV; listed as Homo sapiens) [compound 6]		++ (20%-49% = ++)	+++ (50%-75% = +++)	
90 (FLQDLEQRL; listed as Homo sapiens) [compound 90]		+ (<20% = +)	+++ (50%-75% = +++)	
230 (KLQNIMMLL; listed as Homo sapiens) [compound 230]		++++ (≧70% = ++++)	++ (20%-49% = ++)	
301 (AYKPGALTF; listed as Homo sapiens) [compound 301]	+ (<20% = +)			
92 (GLLFSLRSV; listed as Homo sapiens) [compound 92]		++ (20%-49% = ++)	++++ (≧75% = ++++)	
290 (KIVDFSYSV; listed as Homo sapiens) [compound 290]	++ (20%-49% = ++)			

Substance	Share of positive wells (percent class) [1]	Wells positive [%] [1]	Peptide exchange [2]	Peptide exchange [3]
20 (GLSQITNQL; listed as Homo sapiens) [compound 20]		++ (20%-49% = ++)	+++ (50%-75% = +++)	
18 (ILLDLTDNRL; listed as Homo sapiens) [compound 18]		+ (<20% = +)	+++ (50%-75% = +++)	
292 (GMMTAILGV; listed as Homo sapiens) [compound 292]	+ (<20% = +)			
96 (LLVSHLYLV; listed as Homo sapiens) [compound 96]		++ (20%-49% = ++)	++ (20%-49% = ++)	
248 (YLDRFLAGV; listed as Homo sapiens) [compound 248]		++ (20%-49% = ++)	++++ (≧75% = ++++)	
297 (PFLQASPHF; listed as Homo sapiens) [compound 297]	++ (20%-49% = ++)			
300 (AYVLRLETL; listed as Homo sapiens) [compound 300]	+ (<20% = +)			
291 (KLDETGNSL; listed as Homo sapiens) [compound 291]	+ (<20% = +)			
293 (FLVDGSWSI; listed as Homo sapiens) [compound 293]	+ (<20% = +)			
183 (VFTSTARAF; listed as Homo sapiens) [compound 183]				+++ (50%-75% = +++)
287 (LYITEPKTI; listed as Homo sapiens) [compound 287]				+++ (50%-75% = +++)
227 (IFLDYEAGTLSF; listed as Homo sapiens) [compound 227]				++++ (≧75% = ++++)
187 (TYLRDQHFL; listed as Homo sapiens) [compound 187]				++++ (≧75% = ++++)
205 (VHIPEVYLI; listed as Homo sapiens) [compound 205]				+++ (50%-75% = +++)
277 (VYQGHTALL; listed as Homo sapiens) [compound 277]				++++ (≧75% = ++++)
228 (KYTSWYVAL; listed as Homo sapiens) [compound 228]				++++ (≧75% = ++++)
175 (YYEVHKELF; listed as Homo sapiens) [compound 175]				++++ (≧75% = ++++)
279 (TYIESASEL; listed as Homo sapiens) [compound 279]				+++ (50%-75% = +++)
224 (QYLENLEKL; listed as Homo sapiens) [compound 224]				+++ (50%-75% = +++)
170 (VYEDQVGKF; listed as Homo sapiens) [compound 170]				++ (20%-49% = ++)
